Results on 25 compounds are retold here after patent US11078193B2 (priority 2014, dated 2021).

Holding throughout (assay type): cell-based
The test system of series [1] is HBV. In words: anti-HBV activity, HepG2.2.15 stable transfected cell line, HBV DNA from secreted virions by realtime PCR. As to conditions: Hepatitis B virus, 144 h, HepG2.2.15 cells, 6 days of treatment.
The nature of series [2]: Cytotoxicity, HepG2 cells, Resazurin assay. Particulars: human. (In general: The colour change of resazurin is a common sign of viable cells or microbes.)
Series [3] relates to HBV. The experiment in a line: anti HBV activity, HepG2.117 inducibly HBV producing cell line (Tet-off), intracellular HBV DNA by realtime PCR. As to conditions: Hepatitis B virus, 72 h, HepG2.117 cells, 3 days of treatment.

Where only a bound is given, the exact number is not on record here.

On to `C[C@@H](NS(=O)(=O)c1cn(C)c(C(=O)Nc2ccnc(C#N)c2)c1Cl)C(C)(F)F` [Compound 96, 3-chloro-N-(2-cyano-4-pyridyl)-4-[[(1R)-2,2-difluoro-1-methyl-propyl]sulfamoyl]-1-methyl-pyrrole-2-carboxamide], for which the EC50 in the series on HBV [1] and in the series on HBV [3] was 40 nM throughout. In addition, the CC50 – broadly, the concentration at which the toxic effect on the cells reaches its halfway point – at 4 days in series [2] was more than 25000 nM.

Turning to `C[C@@H](NS(=O)(=O)c1cn(C)c(C(=O)Nc2ccnc(C(F)(F)F)c2)c1Cl)C(F)(F)F` [Compound 10, 3-Chloro-1-methyl-4-{[(1R)-2,2,2-trifluoro-1-methylethyl]sulfamoyl}-N-[2-(trifluoromethyl)pyridin-4-yl]-1H-pyrrole-2-carboxamide], the EC50 (in general, the concentration giving half of the maximal effect) came out at 70 nM in the series on HBV [1] and 160 nM with HBV [3]. Further, in series [2], the CC50 at 4 days is more than 25000 nM.

For the compound `CC[C@@H](NS(=O)(=O)c1cn(C)c(C(=O)Nc2ccnc(C#N)c2)c1Cl)C(F)(F)F` [Compound 38, 3-chloro-N-(2-cyano-4-pyridyl)-1-methyl-4-[[(1R)-1-(trifluoromethyl)propyl]-sulfamoyl]pyrrole-2-carboxamide], the EC50 in the series on HBV [1] came out at 40 nM; with HBV [3], 50 nM. In series [2], this compound displayed a cytotoxic concentration (CC50) at 4 days of more than 25000 nM.

For the compound `C[C@@H](NS(=O)(=O)c1cn(C)c(C(=O)Nc2ccnc(Cl)c2F)c1F)C(F)(F)F` [Compound 118, N-(2-chloro-3-fluoro-4-pyridyl)-3-fluoro-1-methyl-4-[[(1R)-2,2,2-trifluoro-1-methyl-ethyl]sulfamoyl]pyrrole-2-carboxamide], the EC50 with HBV [1] is 100 nM; in the series with HBV [3], 10 nM. In series [2], this compound came in with a CC50 at 4 days of more than 25000 nM.

Turning to `C[C@@H](NS(=O)(=O)c1cn(C)c(C(=O)Nc2ccnc(Cl)c2F)c1F)C(C)(F)F` [Compound 125, N-(2-chloro-3-fluoro-4-pyridyl)-4-[[(1R)-2,2-difluoro-1-methyl-propyl]sulfamoyl]-3-fluoro-1-methyl-pyrrole-2-carboxamide], the EC50 in the series with HBV [1] is less than 100 nM; in the series with HBV [3], 8 nM. This compound yielded a CC50 at 4 days in series [2] of more than 25000 nM.

Take `C[C@@H](NS(=O)(=O)c1cn(C)c(C(=O)Nc2ccnc(Cl)c2F)c1Cl)C(F)(F)F` [Compound 33, 3-chloro-N-(2-chloro-3-fluoro-4-pyridyl)-1-methyl-4-[[(1R)-2,2,2-trifluoro-1-methyl-ethyl]sulfamoyl]pyrrole-2-carboxamide]: the results for the concentration for a half-maximal effect (EC50) in the series on HBV [1] and in the series with HBV [3] were 8 nM and 10 nM, respectively. Moreover, the 50% cytotoxic concentration (CC50) at 4 days in series [2] was more than 25000 nM.

As for `CC[C@H](NS(=O)(=O)c1cc(C(=O)Nc2ccnc(C#N)c2)n(C)c1)C(F)(F)F` [Compound 41, N-(2-cyano-4-pyridyl)-1-methyl-4-[[(1S)-1-(trifluoromethyl)propyl]-sulfamoyl]pyrrole-2-carboxamide], the concentration for a half-maximal effect (EC50) in the series on HBV [1] turned out to be 70 nM; in the series on HBV [3], 100 nM. The CC50 at 4 days in series [2] was more than 25000 nM.

As to `C[C@@H](NS(=O)(=O)c1cn(C)c(C(=O)Nc2cccc(C(F)(F)F)n2)c1F)C(F)(F)F` [Compound 26, 3-fluoro-1-methyl-4-[[(1R)-2,2,2-trifluoro-1-methyl-ethyl]sulfamoyl]-N-[6-(trifluoromethyl)-2-pyridyl]pyrrole-2-carboxamide], the EC50 with HBV [1] was 110 nM; with HBV [3] it was more than 1000 nM. In series [2], the CC50 at 4 days was more than 25000 nM.

With `C[C@@H](NS(=O)(=O)c1cn(C)c(C(=O)Nc2cnc(F)c(Br)c2)c1F)C(F)(F)F` [Compound 29, N-(5-bromo-6-fluoro-3-pyridyl)-3-fluoro-1-methyl-4-[[(1R)-2,2,2-trifluoro-1-methyl-ethyl]sulfamoyl]pyrrole-2-carboxamide], the results for the concentration giving a half-maximal response (EC50) with HBV [1] and in the series with HBV [3] were 40 nM and 60 nM, respectively. In series [2], this compound yielded a CC50 at 4 days of more than 25000 nM.

As for `Cn1cc(S(=O)(=O)NC2(C(F)(F)F)CCC2)cc1C(=O)Nc1ccnc(Cl)c1` [Compound 48, N-(2-chloro-4-pyridyl)-1-methyl-4-[[1-(trifluoromethyl)cyclobutyl]-sulfamoyl]pyrrole-2-carboxamide], the EC50 with HBV [1] was found to be 60 nM; in the series on HBV [3] it was 40 nM. The same compound showed a cytotoxic concentration (CC50) at 4 days in series [2] of more than 25000 nM.

`Cc1cc(NC(=O)c2c(Cl)c(S(=O)(=O)N[C@H](C)C(F)(F)F)cn2C)cc(F)n1` [Compound 137, 3-chloro-N-(2-fluoro-6-methyl-4-pyridyl)-1-methyl-4-[[(1R)-2,2,2-trifluoro-1-methyl-ethyl]sulfamoyl]pyrrole-2-carboxamide]: the values for the EC50 with HBV [1] and with HBV [3] were less than 100 nM and 20 nM, respectively. In series [2], this compound returned a CC50 at 4 days of more than 25000 nM.

As for `C[C@@H](NS(=O)(=O)c1cn(C)c(C(=O)Nc2ccc(F)cn2)c1F)C(F)(F)F` [Compound 28, 3-fluoro-N-(5-fluoro-2-pyridyl)-1-methyl-4-[[(1R)-2,2,2-trifluoro-1-methyl-ethyl]sulfamoyl]pyrrole-2-carboxamide], the EC50 in the series on HBV [1] was determined as 360 nM; in the series with HBV [3], 700 nM. The CC50 at 4 days in series [2] is more than 25000 nM.

As to `Cn1cc(S(=O)(=O)NC(C)(C)C)c(Cl)c1C(=O)Nc1ccnc(C#N)c1` [Compound 6, 4-(tert-Butylsulfamoyl)-3-chloro-N-(2-cyanopyridin-4-yl)-1-methyl-1H-pyrrole-2-carboxamide], the figures for the EC50 with HBV [1] and in the series with HBV [3] were 590 nM and 650 nM, respectively. Also, the half-maximal cytotoxic concentration (CC50) at 4 days in series [2] was more than 25000 nM.

For the compound `Cn1cc(S(=O)(=O)NC2(C(F)(F)F)CC2)c(Cl)c1C(=O)Nc1ccnc(C#N)c1` [Compound 39, 3-chloro-N-(2-cyano-4-pyridyl)-1-methyl-4-[[1-(trifluoromethyl)cyclopropyl]-sulfamoyl]pyrrole-2-carboxamide], the EC50 in the series on HBV [1] and with HBV [3] was 90 nM in each case. In series [2], this compound showed a CC50 at 4 days of more than 25000 nM.

As for `C[C@@H](NS(=O)(=O)c1cn(C)c(C(=O)Nc2cccc(C#N)n2)c1F)C(F)(F)F` [Compound 25, N-(6-cyano-2-pyridyl)-3-fluoro-1-methyl-4-[[(1R)-2,2,2-trifluoro-1-methyl-ethyl]sulfamoyl]pyrrole-2-carboxamide], the figures for the EC50 with HBV [1] and with HBV [3] were 190 nM and more than 1000 nM, respectively. In addition, the CC50 at 4 days in series [2] is more than 25000 nM.

Turning to `Cn1cc(S(=O)(=O)NC2(C(F)(F)F)CC2)cc1C(=O)Nc1ccnc(C#N)c1` [Compound 49, N-(2-cyano-4-pyridyl)-1-methyl-4-[[1-(trifluoromethyl)cyclopropyl]-sulfamoyl]pyrrole-2-carboxamide], the EC50 in the series on HBV [1] and in the series with HBV [3] was 110 nM each time. In addition, the CC50 at 4 days in series [2] is more than 25000 nM.

Consider `Cn1cc(S(=O)(=O)NC2(C)COC2)cc1C(=O)Nc1cncc(C(F)(F)F)c1` [Compound 2, 1-Methyl-4-[(3-methyloxetan-3-yl)sulfamoyl]-N-[5-(trifluoromethyl)pyridin-3-yl]-1H-pyrrole-2-carboxamide], for which the concentration for a half-maximal effect (EC50) was more than 1000 nM in the series with HBV [1] and 10400 nM in the series on HBV [3]. In series [2], this compound came in with a CC50 at 4 days of more than 25000 nM.

For `C[C@@H](NS(=O)(=O)c1cn(C)c(C(=O)Nc2ccnc(C(F)(F)F)c2)c1F)C(C)(F)F` [Compound 60, 4-[[(1R)-2,2-difluoro-1-methyl-propyl]sulfamoyl]-3-fluoro-1-methyl-N-[2-(trifluoromethyl)-4-pyridyl]pyrrole-2-carboxamide], the EC50 worked out at 240 nM in the series on HBV [1] and 40 nM with HBV [3]. Moreover, in series [2], the CC50 at 4 days is more than 25000 nM.

As to `C[C@@H](NS(=O)(=O)c1cn(C)c(C(=O)Nc2cccc(C#N)n2)c1Cl)C(F)(F)F` [Compound 22, 3-chloro-N-(6-cyano-2-pyridyl)-1-methyl-[[(1R)-2,2,2-trifluoro-1-methyl-ethyl]sulfamoyl]pyrrole-2-carboxamide], the EC50 in the series on HBV [1] came to 440 nM; in the series with HBV [3] it was 720 nM. This compound also yielded a CC50 at 4 days in series [2] of more than 25000 nM.

Take `C[C@@H](NS(=O)(=O)c1cn(C)c(C(=O)Nc2ccnc(C(F)(F)F)c2)c1F)C(F)(F)F` [Compound 21, 3-fluoro-1-methyl-[[(1R)-2,2,2-trifluoro-1-methyl-ethyl]sulfamoyl]-N-[2-(trifluoromethyl)-4-pyridyl]pyrrole-2-carboxamide]: the EC50 in the series with HBV [1] turned out to be 40 nM; with HBV [3], 30 nM. In series [2], this compound gave a 50% cytotoxic concentration (CC50) at 4 days of more than 25000 nM.

Take `CC[C@@H](NS(=O)(=O)c1cn(C)c(C(=O)Nc2ccnc(C(F)F)c2)c1F)C(F)(F)F` [Compound 87, N-[2-(difluoromethyl)-4-pyridyl]-3-fluoro-1-methyl-4-[[(1R)-1-(trifluoromethyl)propyl]sulfamoyl]pyrrole-2-carboxamide]: the EC50 with HBV [1] worked out at 20 nM; in the series with HBV [3], 30 nM. The CC50 at 4 days in series [2] was more than 25000 nM.

`C[C@@H](NS(=O)(=O)c1cn(C)c(C(=O)Nc2cc(Cl)nc(Cl)c2)c1F)C(F)(F)F` [Compound 126, N-(2,6-dichloro-4-pyridyl)-3-fluoro-1-methyl-4-[[(1R)-2,2,2-trifluoro-1-methyl-ethyl]sulfamoyl]pyrrole-2-carboxamide]: the EC50 in the series with HBV [1] and in the series on HBV [3] was 20 nM in each case. Also, the CC50 at 4 days in series [2] is more than 25000 nM.

As for `Cc1cc(NC(=O)c2c(Cl)c(S(=O)(=O)N[C@H](C)C(F)(F)F)cn2C)cnc1F` [Compound 13, 3-Chloro-N-(6-fluoro-5-methylpyridin-3-yl)-1-methyl-4-{[(1R)-2,2,2-trifluoro-1-methylethyl]sulfamoyl}-1H-pyrrole-2-carboxamide], the concentration for a half-maximal effect (EC50) was 110 nM in the series on HBV [1] and 180 nM in the series on HBV [3]. This compound yielded a CC50 at 4 days in series [2] of more than 25000 nM.

As to `CC[C@@H](NS(=O)(=O)c1cn(C)c(C(=O)Nc2ccnc(C(F)F)c2)c1Cl)C(F)(F)F` [Compound 85, 3-chloro-N-[2-(difluoromethyl)-4-pyridyl]-1-methyl-4-[[(1R)-1-(trifluoromethyl)propyl]sulfamoyl]pyrrole-2-carboxamide], the figures for the EC50 in the series with HBV [1] and in the series on HBV [3] were 20 nM and 40 nM, respectively. The compound also displayed a CC50 at 4 days in series [2] of 24000 nM.

`C[C@@H](NS(=O)(=O)c1cn(C)c(C(=O)Nc2cc(F)nc(F)c2)c1Cl)C(F)(F)F` [Compound 35, 3-chloro-N-(2,6-difluoro-4-pyridyl)-1-methyl-4-[[(1R)-2,2,2-trifluoro-1-methyl-ethyl]sulfamoyl]pyrrole-2-carboxamide]: the EC50 in the series with HBV [1] came out at 5 nM; with HBV [3], 10 nM. Also, in series [2], the CC50 at 4 days was more than 25000 nM.
